Here are results for one substance from patent US7504096B1, “Methods for in vitro fertilization” (The United States of America as represented by the …, priority 1999, dated 2009).

In the assay the test system is ovariectomized mice. The assay is described as follows: Blastocyst implantation after embryo transfer in ovariectomized, steroid-primed mice (LIF as replacement for nidatory estrogen). Format: in vivo. Conditions: for Nos. Implanted / Nos. Pregnant: E2 1 injection of 40 ng or LIF 3 injections of 5 μg 1 hour apart, analysis four days later. On the procedure: Mice were ovariectomized and allowed to recover for 18 days before starting experimental manipulation. Priming of the uterus by steroid hormones was started by the injection of 100 ng of Estrogen on each of 3 consecutive days. On the 6th day the mice were given a single injection of Progesterone in the form of Depo-Provera. Three days later an average of 6 blastocysts, either directly isolated from females or from cultures started the previous day when the embryos were at the 8-cell stage were surgically transferred to the right uterine horn. After the mice had recovered from surgery they were either given 1 injection of 40 ng of estrogen or 3 injections, 1 hour apart, of 5 μg LIF. Four days later (equivalent to Day 7-8 of pregnancy) the mice were sacrificed for analysis, and the implantation sites recovered.

[1] abbreviates: Blastocyst type at time of transfer: D4 cultured, E2 36 blastocysts (6 recipients), LIF 42 (7).
[2] abbreviates: Blastocyst type at time of transfer: D4 direct, 36 blastocysts in 6 recipients.

As for “LIF: cytokine Leukemia Inhibitory Factor, recombinant, member of the IL-6 family of cytokines”, the “Nos. Implanted” value is 16 under setting [1] and 30 under setting [2]. Further, the “Nos. Pregnant” value is, setting by setting: under setting [1], 5; under setting [2], 6. For the same substance, the “Inducing embryo implantation in place of estrogen (result in words)” value (injection of LIF versus injection of estrogen, Table 1 protocol) is “can unequivocally replace the injection of estrogen for inducing embryo implantation”.
